pEC50, pIC50: −log10 of the molar value.
What was measured:
Kir6.2*-GFP + SUR-K205E [1] = target: T1, Kir6.2*-GFP + SUR-K205E (Homo sapiens, UniProt Q14654); assay: ANAP fluorescence quenching in excised patches (patch-clamp fluorometry); assay type: binding; settings: excised patches (PCF), Hill fit
T1 construct: ANAP labelling is specific and only full-length Kir6.2 is expressed at the cell membrane; expressed in transfected cells; host or cells: HEK-293T
Source text: (§1) We introduced a charge neutralization (alanine, K205A) and a charge reversal (glutamate, K205E) mutation at this position and measured simultaneous nucleotide binding and current inhibition with PCF (Figure 4B,C,D). The binding and inhibition curves for TNP-ATP almost perfectly overlaid for the SUR1-K205A mutant (Figure 4C). The same was also true for SUR1-K205E (Figure 4D). Data were fit with the MWC-type model as before. […] This was reflected by a decrease in the estimated KA for TNP-ATP, which correlated with the degree of conservation of the mutation, that is we observed a larger effect for the charge reversal compared to the charge neutralization mutation (Figure 4E). However, in addition to direct effects of K205 on nucleotide binding, we also observed a shift in D for both mutations (Figure 4E).
(§2) Currents were measured as described above.
(§3) ANAP bleaching was corrected as for the unroofed binding experiments with Equation 1 (Figure 2—figure supplement 3A). Due to the lower signal-to-noise ratio for PCF compared to the unroofed membranes, we performed experiments from both high-to-low and low-to-high TNP-ATP concentrations to minimise artifacts from our bleaching corrections.

Kir6.2*-GFP + SUR-K205A [2] = target: T2, Kir6.2*-GFP + SUR-K205A (Homo sapiens, UniProt Q14654); assay: as above; assay type: binding; settings: excised patches (PCF), Hill fit
T2 construct: ANAP labelling is specific and only full-length Kir6.2 is expressed at the cell membrane; expressed in transfected cells; host or cells: HEK-293T
Source text: as §1, §2, §3

Kir6.2-GFP + SUR1 = Kir6.2-GFP + SUR1 (Homo sapiens, UniProt Q14654); assay: as above; assay type: binding; parameters: full length, fully ANAP-labelled Kir6.2 protein was produced and successfully trafficked to the membrane in the presence of SUR1; expressed in transfected cells; host or cells: HEK-293T; settings: excised patches (PCF), Hill fit
Experimental: as §2, §3

Kir6.2*,C166S-GFP + SUR1 = Kir6.2*,C166S-GFP + SUR1 (Homo sapiens, UniProt Q14654, C166S); assay: as above; assay type: binding; parameters: ANAP labelling is specific and only full-length Kir6.2 is expressed at the cell membrane; expressed in transfected cells; host or cells: HEK-293T; settings: excised patches (PCF), Hill fit
Experimental: as §2, §3

Kir6.2*-GFP + SUR-K205E [3] = target: T1, Kir6.2*-GFP + SUR-K205E; assay: Current inhibition in excised inside-out patches (patch-clamp fluorometry); assay type: biochemical; settings: Mg2+-free, Hill fit
Source text: as §1, §2

Kir6.2*-GFP + SUR-K205A [4] = target: T2, Kir6.2*-GFP + SUR-K205A; assay: as above; assay type: biochemical; settings: Mg2+-free, Hill fit
Source text: as §1, §2

T1 sequence (Q14654 whole entry, stated change not applied): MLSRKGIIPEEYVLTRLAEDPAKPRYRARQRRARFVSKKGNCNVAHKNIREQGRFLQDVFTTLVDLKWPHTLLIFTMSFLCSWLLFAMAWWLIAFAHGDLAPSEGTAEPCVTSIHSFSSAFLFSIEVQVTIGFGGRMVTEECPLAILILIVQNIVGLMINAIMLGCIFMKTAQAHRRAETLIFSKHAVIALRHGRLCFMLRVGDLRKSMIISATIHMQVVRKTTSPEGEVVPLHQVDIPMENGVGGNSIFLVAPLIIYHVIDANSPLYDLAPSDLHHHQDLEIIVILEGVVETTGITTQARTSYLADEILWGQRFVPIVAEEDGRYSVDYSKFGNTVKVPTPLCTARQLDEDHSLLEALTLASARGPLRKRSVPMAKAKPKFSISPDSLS
T1 sequence (Q09428 whole entry K205E partner): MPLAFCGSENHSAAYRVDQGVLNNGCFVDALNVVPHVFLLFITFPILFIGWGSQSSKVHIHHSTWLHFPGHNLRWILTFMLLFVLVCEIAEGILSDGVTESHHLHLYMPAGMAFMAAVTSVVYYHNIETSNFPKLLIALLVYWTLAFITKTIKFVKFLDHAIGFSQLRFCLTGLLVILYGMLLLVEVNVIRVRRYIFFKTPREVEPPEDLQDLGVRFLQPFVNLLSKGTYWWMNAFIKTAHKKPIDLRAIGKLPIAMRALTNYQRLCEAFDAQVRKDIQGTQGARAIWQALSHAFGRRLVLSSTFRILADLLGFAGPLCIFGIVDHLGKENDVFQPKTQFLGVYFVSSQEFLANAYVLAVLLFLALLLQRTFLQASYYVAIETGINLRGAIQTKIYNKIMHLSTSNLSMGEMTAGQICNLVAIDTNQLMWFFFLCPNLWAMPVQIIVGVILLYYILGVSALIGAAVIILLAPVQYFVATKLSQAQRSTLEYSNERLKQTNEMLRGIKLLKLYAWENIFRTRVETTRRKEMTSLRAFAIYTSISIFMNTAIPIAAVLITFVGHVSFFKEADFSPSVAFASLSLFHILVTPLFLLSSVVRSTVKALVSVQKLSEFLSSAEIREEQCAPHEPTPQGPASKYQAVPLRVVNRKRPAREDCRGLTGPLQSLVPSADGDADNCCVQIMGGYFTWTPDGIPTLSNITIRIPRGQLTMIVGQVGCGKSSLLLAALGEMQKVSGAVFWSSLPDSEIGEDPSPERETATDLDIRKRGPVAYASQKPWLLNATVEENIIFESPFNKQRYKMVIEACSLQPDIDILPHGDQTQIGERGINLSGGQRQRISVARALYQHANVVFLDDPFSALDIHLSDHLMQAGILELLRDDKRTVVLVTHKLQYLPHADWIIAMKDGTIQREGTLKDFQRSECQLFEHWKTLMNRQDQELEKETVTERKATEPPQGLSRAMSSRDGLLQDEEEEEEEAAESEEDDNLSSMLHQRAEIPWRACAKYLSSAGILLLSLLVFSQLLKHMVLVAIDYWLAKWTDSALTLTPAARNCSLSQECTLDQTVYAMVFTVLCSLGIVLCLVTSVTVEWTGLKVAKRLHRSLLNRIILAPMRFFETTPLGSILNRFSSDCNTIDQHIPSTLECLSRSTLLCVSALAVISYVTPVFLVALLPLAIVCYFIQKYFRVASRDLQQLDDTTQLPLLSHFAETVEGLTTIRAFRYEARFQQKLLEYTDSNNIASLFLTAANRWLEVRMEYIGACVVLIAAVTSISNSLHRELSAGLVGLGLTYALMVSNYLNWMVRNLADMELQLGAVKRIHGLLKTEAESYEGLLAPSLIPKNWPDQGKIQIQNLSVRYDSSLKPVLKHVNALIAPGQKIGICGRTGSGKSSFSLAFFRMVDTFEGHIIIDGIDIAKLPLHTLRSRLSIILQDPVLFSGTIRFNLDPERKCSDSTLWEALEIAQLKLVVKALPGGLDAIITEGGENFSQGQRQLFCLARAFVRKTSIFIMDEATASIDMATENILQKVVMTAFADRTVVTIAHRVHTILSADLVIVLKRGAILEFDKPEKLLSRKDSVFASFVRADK
Sequence of Kir6.2-GFP + SUR1 (Q14654 whole entry): as the sequence (Q14654 whole entry, stated change not applied) above
Sequence of Kir6.2-GFP + SUR1 (Q09428 whole entry partner): as the sequence (Q09428 whole entry K205E partner) above, with E205K counted along it
T2 sequence (Q14654 whole entry, stated change not applied): as the sequence (Q14654 whole entry, stated change not applied) above
T2 sequence (Q09428 whole entry K205A partner): as the sequence (Q09428 whole entry K205E partner) above, with E205A counted along it
Sequence of Kir6.2*,C166S-GFP + SUR1 (Q14654 whole entry C166S): as the sequence (Q14654 whole entry, stated change not applied) above, with C166S counted along it
Sequence of Kir6.2*,C166S-GFP + SUR1 (Q09428 whole entry partner): as the sequence (Q09428 whole entry K205E partner) above, with E205K counted along it

With `Nc1ncnc2c1ncn2[C@@H]1O[C@H](COP(=O)(O)OP(=O)(O)OP(=O)(O)O)[C@H]2OC3(O[C@H]21)C([N+](=O)[O-])=CC(=[N+]([O-])[O-])C=C3[N+](=O)[O-]` (stereo partly shown) [TNP-ATP, trinitrophenyl-ATP] the “h (Hill coefficient) fluorescence quenching” value (Kir6.2*-GFP + SUR-K205E [1]) was 0.74, the Emax (Kir6.2*-GFP + SUR-K205E [1]; fraction) was 100% and the pEC50 (Kir6.2*-GFP + SUR-K205E [1]; n = 9) was 3.37. For the same molecule, the “h (Hill coefficient) fluorescence quenching” value (Kir6.2*-GFP + SUR-K205A [2]) was 0.73, the Emax (Kir6.2*-GFP + SUR-K205A [2]; fraction) was 100% and the pEC50 (Kir6.2*-GFP + SUR-K205A [2]; n = 9) was 3.69. The “h (Hill coefficient) fluorescence quenching” value (Kir6.2-GFP + SUR1) was 0.87, the Emax (Kir6.2-GFP + SUR1; fraction) was 100% and the pEC50 (Kir6.2-GFP + SUR1; n = 9) was 4.11. For the same molecule, the “h (Hill coefficient) fluorescence quenching” value (Kir6.2*,C166S-GFP + SUR1) was 0.84, the Emax (Kir6.2*,C166S-GFP + SUR1; fraction) was 100% and the pEC50 (Kir6.2*,C166S-GFP + SUR1; n = 6) was 4.17. For the same molecule, the “h (Hill coefficient) current inhibition” value (Kir6.2*-GFP + SUR-K205E [3]) was 0.79, the pIC50 (Kir6.2*-GFP + SUR-K205E [3]; n = 9) was 3.20 and the “h (Hill coefficient) current inhibition” value (Kir6.2*-GFP + SUR-K205A [4]) was 0.75. It also gave a pIC50 (Kir6.2*-GFP + SUR-K205A [4]; n = 9) of 3.78.

— paper PMC7004565, “Nucleotide inhibition of the pancreatic ATP-sensitive K^+ channel explored with patch-clamp fluorometry” (eLife, 2020)
